Source: patent publication US12077503B2, “Substituted cyclic amides and their use as herbicides” (FMC CORPORATION, priority 2015, dated 2024)

Legend:
Assay type in all cases: in vivo
[1] = system: ducksalad (Heteranthera limosa); test: Test B flooded paddy test; details: Heteranthera limosa, 250 g ai/ha, Flood; 0 to 100 scale where 0 is no effect and 100 is complete control; read-out: Ducksalad plant response rating
How it was run: (§1)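 2-leaf plants; pots flooded 3 cm over soil; cpd added to paddy water; depth held; greenhouse 13–15 d; visual rating vs controls, 0 = no effect, 100 = complete control.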

rice (Oryra sativa) = test: Test B flooded paddy test; details: Oryza sativa, 250 g ai/ha, Flood; 0 to 100 scale where 0 is no effect and 100 is complete control; read-out: Rice plant response rating
How it was run: as §1

[2] = system: sedge, umbrella (small-flower umbrella sedge, Cyperus difformis); test: Test B flooded paddy test; details: Cyperus difformis, 250 g ai/ha, Flood; 0 to 100 scale where 0 is no effect and 100 is complete control; read-out: Sedge, Umbrella plant response rating
How it was run: as §1

[3] = system: barnyardgrass (Echinochloa crus-galli); test: Test B flooded paddy test; details: Echinochloa crus-galli, 250 g ai/ha, Flood; 0 to 100 scale where 0 is no effect and 100 is complete control; read-out: Barnyardgrass plant response rating
How it was run: as §1

[4] = system: ragweed (common ragweed, Ambrosia elatior); test: Test A postemergence; details: Ambrosia artemisiifolia, post-emergence, 240 h
How it was run: (§2)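 Seeded soil received test chemicals as a preemergence directed spray, and seedlings at one to two leaves, 2–10 cm tall, received them postemergence, in a non-phytotoxic, surfactant-containing solvent mixture. Pots were held in a greenhouse for approximately 10 d, then rated for injury from 0, no effect, to 100, complete control.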

[5] = system: Galium (catchweed bedstraw, Galium aparine); test: Test A postemergence; details: Galium, post-emergence, 240 h
How it was run: as §2

[6] = system: giant foxtail (Setaria faberii); test: Test A postemergence; details: Setaria faberi, post-emergence, 240 h
How it was run: as §2

[7] = system: wheat (Triticum aestivum); test: Test A postemergence; details: Triticum aestivum, post-emergence, 240 h
How it was run: as §2

[8] = system: ryegrass, Italian (Italian ryegrass, Lolium multiflorum); test: Test A postemergence; details: Lolium multiflorum, post-emergence, 240 h
How it was run: as §2

[9] = system: barnyardgrass (Echinochloa crus-galli); test: Test A postemergence; details: Echinochloa crus-galli, post-emergence, 240 h
How it was run: as §2

corn (Zea mays) = test: Test A postemergence; details: Zea mays, post-emergence, 240 h
How it was run: as §2

[10] = system: pigweed (Amaranthus retroflexus); test: Test A postemergence; details: Amaranthus retroflexus, post-emergence, 240 h
How it was run: as §2

[11] = system: blackgrass (Alopecurus myosuroides); test: Test A postemergence; details: Alopecurus myosuroides, post-emergence, 240 h
How it was run: as §2

Kochia (Kochia scoparia) [12] = test: Test A postemergence; details: Bassia scoparia, post-emergence, 240 h
How it was run: as §2

[13] = system: ragweed (common ragweed, Ambrosia elatior); test: Test A preemergence; details: Ambrosia artemisiifolia, pre-emergence, 240 h, 0 to 100 scale where 0 is no effect and 100 is complete control, read-out: Ragweed plant response rating
How it was run: as §2

[14] = system: giant foxtail (Setaria faberii); test: Test A preemergence; details: Setaria faberi, pre-emergence, 240 h, Preemergence
How it was run: as §2

[15] = system: ryegrass, Italian (Italian ryegrass, Lolium multiflorum); test: Test A preemergence; details: Lolium multiflorum, pre-emergence, 240 h, 0 to 100 scale where 0 is no effect and 100 is complete control, read-out: Ryegrass, Italian plant response rating
How it was run: as §2

[16] = system: barnyardgrass (Echinochloa crus-galli); test: Test A preemergence; details: Echinochloa crus-galli, pre-emergence, 240 h, Preemergence
How it was run: as §2

[17] = system: pigweed (Amaranthus retroflexus); test: Test A preemergence; details: Amaranthus retroflexus, pre-emergence, 240 h, 0 to 100 scale where 0 is no effect and 100 is complete control, read-out: Pigweed plant response rating
Kochia (Kochia scoparia) [18] = test: Test A preemergence; details: Bassia scoparia, pre-emergence, 240 h, 0 to 100 scale where 0 is no effect and 100 is complete control, read-out: Kochia plant response rating
How it was run: as §2

[19] = 125 g ai/ha, preemergence, approx. 10 d

In the case of `Cc1ccncc1NC(=O)[C@H]1C(=O)N(C)C[C@@H]1c1cccc(C(F)(F)F)c1` [Compound 1069], the pest or weed control at 250 g/ha [1] is reported as 35%, the pest or weed control at 250 g/ha (rice (Oryra sativa)) is reported as 0% and the pest or weed control at 250 g/ha [2] is reported as 0%. It also gave a pest or weed control at 250 g/ha [3] of 20%, a pest or weed control at 125 g/ha ([4]; 125 g ai/ha, postemergence, visual injury on 0 to 100 scale (0 no effect, 100 complete control), approx. 10 d, read-out: Ragweed plant response rating) of 0% and a pest or weed control at 31 g/ha ([4]; Postemergence, 31 g ai/ha, visual injury after approx. 10 d, 0 to 100 scale, 0 no effect, 100 complete control, read-out: Plant response rating, Ragweed) of 0%. The pest or weed control at 125 g/ha ([5]; 125 g ai/ha, postemergence, visual injury on 0 to 100 scale (0 no effect, 100 complete control), approx. 10 d, read-out: Galium plant response rating) was 0%, the pest or weed control at 31 g/ha ([5]; Postemergence, 31 g ai/ha, visual injury after approx. 10 d, 0 to 100 scale, 0 no effect, 100 complete control, read-out: Plant response rating, Galium) was 0% and the pest or weed control at 125 g/ha ([6]; 125 g ai/ha, postemergence, visual injury on 0 to 100 scale (0 no effect, 100 complete control), approx. 10 d, read-out: Foxtail, Giant plant response rating) was 0%. The pest or weed control at 31 g/ha ([6]; Postemergence, 31 g ai/ha, visual injury after approx. 10 d, 0 to 100 scale, 0 no effect, 100 complete control, read-out: Plant response rating, Foxtail, Giant) was 0%, the plant injury at 125 g/ha ([7]; 125 g ai/ha, postemergence, visual injury on 0 to 100 scale (0 no effect, 100 complete control), approx. 10 d, read-out: Wheat plant response rating) was 0% and the plant injury at 31 g/ha ([7]; Postemergence, 31 g ai/ha, visual injury after approx. 10 d, 0 to 100 scale, 0 no effect, 100 complete control, read-out: Plant response rating, Wheat) was 0%. It also gave a pest or weed control at 125 g/ha ([8]; 125 g ai/ha, postemergence, visual injury on 0 to 100 scale (0 no effect, 100 complete control), approx. 10 d, read-out: Ryegrass, Italian plant response rating) of 0%, a pest or weed control at 31 g/ha ([8]; Postemergence, 31 g ai/ha, visual injury after approx. 10 d, 0 to 100 scale, 0 no effect, 100 complete control, read-out: Plant response rating, Ryegrass, Italian) of 0% and a pest or weed control at 125 g/ha ([9]; 125 g ai/ha, postemergence, visual injury on 0 to 100 scale (0 no effect, 100 complete control), approx. 10 d, read-out: Barnyardgrass plant response rating) of 0%. The pest or weed control at 31 g/ha ([9]; Postemergence, 31 g ai/ha, visual injury after approx. 10 d, 0 to 100 scale, 0 no effect, 100 complete control, read-out: Plant response rating, Barnyardgrass) was 0%, the plant injury at 125 g/ha (corn (Zea mays); 125 g ai/ha, postemergence, visual injury on 0 to 100 scale (0 no effect, 100 complete control), approx. 10 d, read-out: Corn plant response rating) was 0% and the Corn plant response rating (crop injury, 0 = no effect, 100 = complete kill) at 31 g/ha (corn (Zea mays); Postemergence, 31 g ai/ha, visual injury after approx. 10 d, 0 to 100 scale, 0 no effect, 100 complete control) was 0%. It also gave a pest or weed control at 125 g/ha ([10]; 125 g ai/ha, postemergence, visual injury on 0 to 100 scale (0 no effect, 100 complete control), approx. 10 d, read-out: Pigweed plant response rating) of 0%, a pest or weed control at 31 g/ha ([10]; Postemergence, 31 g ai/ha, visual injury after approx. 10 d, 0 to 100 scale, 0 no effect, 100 complete control, read-out: Plant response rating, Pigweed) of 0% and a pest or weed control at 125 g/ha ([11]; 125 g ai/ha, postemergence, visual injury on 0 to 100 scale (0 no effect, 100 complete control), approx. 10 d, read-out: Blackgrass plant response rating) of 0%. For the same compound, the pest or weed control at 31 g/ha ([11]; Postemergence, 31 g ai/ha, visual injury after approx. 10 d, 0 to 100 scale, 0 no effect, 100 complete control, read-out: Plant response rating, Blackgrass) was 0%, the pest or weed control at 125 g/ha (Kochia (Kochia scoparia) [12]; 125 g ai/ha, postemergence, visual injury on 0 to 100 scale (0 no effect, 100 complete control), approx. 10 d, read-out: Kochia plant response rating) was 0% and the pest or weed control at 31 g/ha (Kochia (Kochia scoparia) [12]; Postemergence, 31 g ai/ha, visual injury after approx. 10 d, 0 to 100 scale, 0 no effect, 100 complete control, read-out: Plant response rating, Kochia) was 0%. It also gave a pest or weed control at 31 g/ha ([13]; 31 g ai/ha, Preemergence) of 0%, a pest or weed control at 125 g/ha [13, 19] of 0% and a pest or weed control at 31 g/ha ([14]; 31 g ai/ha, 0 to 100 scale where 0 is no effect and 100 is complete control, read-out: Foxtail, Giant plant response rating) of 0%. The pest or weed control at 125 g/ha ([14]; 125 g ai/ha, visual injury rating after approximately 10 d, read-out: Foxtail, Giant plant response rating (0 to 100 scale, 0 is no effect, 100 is complete control)) was 50%, the pest or weed control at 31 g/ha ([15]; 31 g ai/ha, Preemergence) was 0% and the pest or weed control at 125 g/ha [15, 19] was 0%. It also gave a pest or weed control at 31 g/ha ([16]; 31 g ai/ha, 0 to 100 scale where 0 is no effect and 100 is complete control, read-out: Barnyardgrass plant response rating) of 0%, a pest or weed control at 125 g/ha ([16]; 125 g ai/ha, visual injury rating after approximately 10 d, read-out: Barnyardgrass plant response rating (0 to 100 scale, 0 is no effect, 100 is complete control)) of 0% and a pest or weed control at 31 g/ha ([17]; 31 g ai/ha, Preemergence) of 0%. For the same compound, the pest or weed control at 125 g/ha [17, 19] was 0%, the pest or weed control at 31 g/ha (Kochia (Kochia scoparia) [18]; 31 g ai/ha, Preemergence) was 0% and the pest or weed control at 125 g/ha (Kochia (Kochia scoparia) [18]; [19]) was 0%.
